From patent US20090076029A1 (Palatin Technologies, Inc., priority 2007, published 2009)
Values joined by “and” are separate entries in the source; they are usually repeats but may differ in a detail not shown here. Equal values may be shown once. Read-outs that look alike come from different tables or passages of the source.

Columns and labels:
hMC3-R = molecular target: T1, hMC3-R; assay: Competitive inhibition assay using [I125]-NDP-α-MSH, hMC3-R membranes; assay type: binding, human; settings: read-out: Ki (nM) (NDP-α-MSH) MC3-R
T1 construct: expressed in transfected cells; host or cells: HEK-293
Method in brief: (§1)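 Membranes from HEK-293 cells expressing hMC3-R, hMC4-R or hMC5-R, or from mouse B-16 melanoma cells (MC1-R), with 0.2–0.4 nM [125I]-NDP-α-MSH in 50 mM HEPES pH 7.2 with Mg2+, Ca2+, K+. Test compound typically 1 μM; 90 min, room temperature; filtration, gamma counting. Percent inhibition vs specific binding (1 μM α-MSH), triplicate mean, negatives as 0%.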

hMC4-R [1] = system: T2, hMC4-R; assay: cAMP functional assay in HEK-293 cells expressing MC4-R (agonist, neutral antagonist/Schild); assay type: cell-based, human; settings: for intrinsic activity at MC4-R: NDP-α-MSH maximal stimulation = 1.0; for pA2 value at MC4-R: Schild plot vs NDP-α-MSH; for functional status at MC4-R: mostly at 1 μM
T2 construct: expressed in transfected cells; host or cells: HEK-293
Method in brief: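 Cells in EBSS/HEPES pH 7.5 with 0.3 mM IBMX, exposed to compound (0.05-5000 nM, 1% DMSO) for 1 h at 37 °C; cAMP by EIA, EC50 by nonlinear regression. Antagonism: 30 min compound pre-incubation, then 1 nM NDP-α-MSH for 1 h; Schild analysis over 0.005-5000 nM agonist gives pA2.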

hMC4-R [2] = system: T2, hMC4-R; assay: Competitive inhibition assay using [I125]-NDP-α-MSH, hMC4-R membranes; assay type: binding, human
hMC5-R = molecular target: T3, hMC5-R; assay: Competitive inhibition assay using [I125]-NDP-α-MSH, hMC5-R membranes; assay type: binding, human; settings: read-out: Ki (nM) (NDP-α-MSH) MC5-R
T3 construct: expressed in transfected cells; host or cells: HEK-293
Method in brief: as §1

[3] = MC4-R membranes, Table 1, read-out: Ki (nM) I125-NPD-α-MSH
[4] = read-out: Ki (nM) (NDP-α-MSH) MC4-R

Compound	Ki (hMC3-R)	functional status (pAg, Ag, Antag, Inactive) (hMC4-R [1]; MC4-R, Table 1)	EC50 (hMC4-R [1]; MC4-R, Table 1, read-out: EC50)	intrinsic activity at MC4-R (hMC4-R [1])	EC50 (hMC4-R [1]; cAMP assay, read-out: EC50 (nM) at MC4-R)	attenuation of binding of α-MSH and AgRP to MC4-R (hMC4-R [2]; both ligands (NDP-α-MSH and AgRP), summary)	Ki (hMC5-R)	pA2 value at MC4-R (hMC4-R [1])	functional status at MC4-R (hMC4-R [1]; cAMP assay)	Ki (hMC4-R [2]; [3])	Ki (hMC4-R [2]; [4])
Cc1ccc(C[C@@H](N)C(=O)N2C[C@@H](C)N(CCc3ccc4ccccc4c3)C[C@@H]2CCCNC(=N)N)c(C)c1 [Example 28, N-{3-[1-[2(R)-Amino-3-(2,4-dimethyl-phenyl)-propionyl]-5(R)-methyl-4-(2-naphthalen-2-yl-ethyl)-piperazin-2(S)-yl]-propyl}-guanidine]	167 nM	pAg (“pAg” means partial agonist)	390 nM	0.16 and 0.2	321 nM	attenuate the binding of both α-MSH and AgRP to MC4-R	665 nM				
CC(=O)N[C@H](Cc1ccc(C)cc1C)C(=O)N1C[C@@H](C)N(CCc2ccc3ccccc3c2)C[C@@H]1CCCNC(=N)N [Example 26, N-{1(R)-(2,4-Dimethyl-benzyl)-2-[2(S)-(3-guanidino-propyl)-5(R)-methyl-4-(2-naphthalen-2-yl-ethyl)-piperazin-1-yl]-2-oxo-ethyl}-acetamide]	74 nM	Antag (“Antag” means antagonist)		no intrinsic activity			43 nM	8.3	antagonist	1 nM	1 nM
CC(C)C[C@@H]1CN(C(=O)[C@H](N)Cc2ccc(Cl)cc2Cl)[C@@H](CCCNC(=N)N)CN1CCc1ccc2ccccc2c1 [Example 4, N-{3-[1-[2(R)-Amino-3-(2,4-dichloro-phenyl)-propionyl]-5(R)-isobutyl-4-(2-naphthalen-2-yl-ethyl)-piperazin-2(S)-yl]-propyl}-guanidine]	87 nM	Antag (“Antag” means antagonist)		no intrinsic activity			160 nM	7.7	antagonist	5 nM	5 nM
